Experimental data taken from ChEMBL document CHEMBL1687752, “Impact of antifungal prophylaxis on colonization and azole susceptibility of Candida species” (2009).
In brackets after ≈: the same amount, converted by molar mass.

These compounds were tested on Nakaseomyces glabratus (assay: Antifungal activity against 29 days cultured Candida glabrata isolated from neutropenic subject with AML or MDS stool after 48 days of prophylaxis by broth microdilution method). Details: not given.
Type: functional

Row | SMILES | MIC
1 | CC[C@@H]([C@H](C)O)n1ncn(-c2ccc(N3CCN(c4ccc(OC[C@@H]5CO[C@@](Cn6cncn6)(c6ccc(F)cc6F)C5)cc4)CC3)cc2)c1=O [POSACONAZOLE] | 1 µg/mL (≈ 1.43 µM)

These compounds were tested on Nakaseomyces glabratus (assay: Antifungal activity against 43 days cultured Candida glabrata isolated from HSCT recipient with acute or chronic GVHD mouth receiving antifungal therapy for 168 days after 113 days of prophylaxis by broth microdilution method). Details: not given.
Type: functional

Row | SMILES | MIC
2 | CC[C@@H]([C@H](C)O)n1ncn(-c2ccc(N3CCN(c4ccc(OC[C@@H]5CO[C@@](Cn6cncn6)(c6ccc(F)cc6F)C5)cc4)CC3)cc2)c1=O [POSACONAZOLE] | 2 µg/mL (≈ 2.85 µM)

What follows are compounds tested on Nakaseomyces glabratus (assay: Antifungal activity against 111 days cultured Candida glabrata isolated from HSCT recipient with acute or chronic GVHD mouth receiving antifungal therapy for 143 days after 116 days of prophylaxis by broth microdilution method). Details: not given.
Type: functional

Row | SMILES | MIC
3 | CC[C@@H]([C@H](C)O)n1ncn(-c2ccc(N3CCN(c4ccc(OC[C@@H]5CO[C@@](Cn6cncn6)(c6ccc(F)cc6F)C5)cc4)CC3)cc2)c1=O [POSACONAZOLE] | 4 µg/mL (≈ 5.71 µM)

Each compound was assayed on Nakaseomyces glabratus (assay: Antifungal activity against 56 days cultured Candida glabrata isolated from HSCT recipient with acute or chronic GVHD mouth receiving antifungal therapy for 172 days after 114 days of prophylaxis by broth microdilution method). Details: not given.
Type: functional

Row | SMILES | MIC
4 | CC[C@@H]([C@H](C)O)n1ncn(-c2ccc(N3CCN(c4ccc(OC[C@@H]5CO[C@@](Cn6cncn6)(c6ccc(F)cc6F)C5)cc4)CC3)cc2)c1=O [POSACONAZOLE] | 0.25 µg/mL (≈ 0.357 µM)

Each compound was assayed on Nakaseomyces glabratus (assay: Antifungal activity against Candida glabrata isolated from HSCT recipient 002 with acute or chronic GVHD mouth receiving antifungal drug after 116 days prophylaxis by broth microdilution method). Details: not given.
Type: functional

Row | SMILES | MIC
5 | CC[C@@H]([C@H](C)O)n1ncn(-c2ccc(N3CCN(c4ccc(OC[C@@H]5CO[C@@](Cn6cncn6)(c6ccc(F)cc6F)C5)cc4)CC3)cc2)c1=O [POSACONAZOLE] | 4 µg/mL (≈ 5.71 µM)

Each compound was assayed on Candida albicans (assay: Antifungal activity against Candida albicans isolated from neutropenic subjects with AML or MDS prior to initiation of posaconazole therapy assessed as maximum MIC by broth microdilution method). Details: not given.
Type: functional

Row | SMILES | MIC
6 | CC[C@@H]([C@H](C)O)n1ncn(-c2ccc(N3CCN(c4ccc(OC[C@@H]5CO[C@@](Cn6cncn6)(c6ccc(F)cc6F)C5)cc4)CC3)cc2)c1=O [POSACONAZOLE] | 0.06 µg/mL

Each compound was assayed on Nakaseomyces glabratus (assay: Antifungal activity against 14 days cultured Candida glabrata isolated from HSCT recipient with acute or chronic GVHD mouth after 17 days of prophylaxis by broth microdilution method). Details: not given.
Type: functional

Row | SMILES | MIC
7 | CC[C@@H]([C@H](C)O)n1ncn(-c2ccc(N3CCN(c4ccc(OC[C@@H]5CO[C@@](Cn6cncn6)(c6ccc(F)cc6F)C5)cc4)CC3)cc2)c1=O [POSACONAZOLE] | 8 µg/mL (≈ 11.4 µM)

These compounds were tested on Nakaseomyces glabratus (assay: Antifungal activity against Candida glabrata isolated from HSCT recipients with acute or chronic GVHD prior to initiation of fluconazole therapy by broth microdilution method). Details: not given.
Type: functional

Row | SMILES | MIC50 | MIC90
8 | CC[C@@H]([C@H](C)O)n1ncn(-c2ccc(N3CCN(c4ccc(OC[C@@H]5CO[C@@](Cn6cncn6)(c6ccc(F)cc6F)C5)cc4)CC3)cc2)c1=O [POSACONAZOLE] | 1 µg/mL (≈ 1.43 µM) | 8 µg/mL (≈ 11.4 µM)

The compounds below were run on Pichia kudriavzevii (assay: Antifungal activity against 8 days cultured Candida krusei isolated from neutropenic subject with AML or MDS stool after 12 days of prophylaxis by broth microdilution method). Details: not given.
Type: functional

Row | SMILES | MIC
9 | CC[C@@H]([C@H](C)O)n1ncn(-c2ccc(N3CCN(c4ccc(OC[C@@H]5CO[C@@](Cn6cncn6)(c6ccc(F)cc6F)C5)cc4)CC3)cc2)c1=O [POSACONAZOLE] | 0.125 µg/mL (≈ 0.178 µM)

These compounds were tested on Nakaseomyces glabratus (assay: Antifungal activity against 19 days cultured Candida glabrata isolated from HSCT recipient with acute or chronic GVHD mouth after 17 days of prophylaxis by broth microdilution method). Details: not given.
Type: functional

Row | SMILES | MIC
10 | CC[C@@H]([C@H](C)O)n1ncn(-c2ccc(N3CCN(c4ccc(OC[C@@H]5CO[C@@](Cn6cncn6)(c6ccc(F)cc6F)C5)cc4)CC3)cc2)c1=O [POSACONAZOLE] | 8 µg/mL (≈ 11.4 µM)

These compounds were tested on Nakaseomyces glabratus (assay: Antifungal activity against Candida glabrata isolated from neutropenic subjects with AML or MDS prior to initiation of posaconazole therapy assessed as maximum MIC by broth microdilution method). Details: not given.
Type: functional

Row | SMILES | MIC
11 | CC[C@@H]([C@H](C)O)n1ncn(-c2ccc(N3CCN(c4ccc(OC[C@@H]5CO[C@@](Cn6cncn6)(c6ccc(F)cc6F)C5)cc4)CC3)cc2)c1=O [POSACONAZOLE] | 4 µg/mL

These compounds were tested on Candida albicans (assay: Antifungal activity against Candida albicans isolated from neutropenic subjects with AML or MDS prior to initiation of fluconazole therapy assessed as maximum MIC by broth microdilution method). Details: not given.
Type: functional

Row | SMILES | MIC
12 | CC[C@@H]([C@H](C)O)n1ncn(-c2ccc(N3CCN(c4ccc(OC[C@@H]5CO[C@@](Cn6cncn6)(c6ccc(F)cc6F)C5)cc4)CC3)cc2)c1=O [POSACONAZOLE] | 0.06 µg/mL

The compounds below were run on Candida albicans (assay: Antifungal activity against Candida albicans isolated from HSCT recipient 928 with acute or chronic GVHD mouth receiving antifungal drug after 112 days prophylaxis by broth microdilution method). Details: not given.
Type: functional

Row | SMILES | MIC
13 | CC[C@@H]([C@H](C)O)n1ncn(-c2ccc(N3CCN(c4ccc(OC[C@@H]5CO[C@@](Cn6cncn6)(c6ccc(F)cc6F)C5)cc4)CC3)cc2)c1=O [POSACONAZOLE] | > 8 µg/mL

What follows are compounds tested on Nakaseomyces glabratus (assay: Antifungal activity against 36 days cultured Candida glabrata isolated from neutropenic subject with AML or MDS pharynx after 48 days of prophylaxis by broth microdilution method). Details: not given.
Type: functional

Row | SMILES | MIC
14 | CC[C@@H]([C@H](C)O)n1ncn(-c2ccc(N3CCN(c4ccc(OC[C@@H]5CO[C@@](Cn6cncn6)(c6ccc(F)cc6F)C5)cc4)CC3)cc2)c1=O [POSACONAZOLE] | 1 µg/mL (≈ 1.43 µM)

What follows are compounds tested on Nakaseomyces glabratus (assay: Antifungal activity against 42 days cultured Candida glabrata isolated from neutropenic subject with AML or MDS stool after 48 days of prophylaxis by broth microdilution method). Details: not given.
Type: functional

Row | SMILES | MIC
15 | CC[C@@H]([C@H](C)O)n1ncn(-c2ccc(N3CCN(c4ccc(OC[C@@H]5CO[C@@](Cn6cncn6)(c6ccc(F)cc6F)C5)cc4)CC3)cc2)c1=O [POSACONAZOLE] | 1 µg/mL (≈ 1.43 µM)

These compounds were tested on Saccharomyces cerevisiae (assay: Antifungal activity against Saccharomyces cerevisiae isolated from HSCT recipient 513 with acute or chronic GVHD mouth after 112 days prophylaxis by broth microdilution method). Details: not given.
Type: functional

Row | SMILES | MIC
16 | CC[C@@H]([C@H](C)O)n1ncn(-c2ccc(N3CCN(c4ccc(OC[C@@H]5CO[C@@](Cn6cncn6)(c6ccc(F)cc6F)C5)cc4)CC3)cc2)c1=O [POSACONAZOLE] | 1 µg/mL (≈ 1.43 µM)

These compounds were tested on Candida albicans (assay: Antifungal activity against Candida albicans isolated from HSCT recipient 462 with acute or chronic GVHD mouth after 112 days prophylaxis by broth microdilution method). Details: not given.
Type: functional

Row | SMILES | MIC
17 | CC[C@@H]([C@H](C)O)n1ncn(-c2ccc(N3CCN(c4ccc(OC[C@@H]5CO[C@@](Cn6cncn6)(c6ccc(F)cc6F)C5)cc4)CC3)cc2)c1=O [POSACONAZOLE] | < 0.015 µg/mL

What follows are compounds tested on Pichia kudriavzevii (assay: Antifungal activity against 14 days cultured Candida krusei isolated from neutropenic subject with AML or MDS pharynx after 12 days of prophylaxis by broth microdilution method). Details: not given.
Type: functional

Row | SMILES | MIC
18 | CC[C@@H]([C@H](C)O)n1ncn(-c2ccc(N3CCN(c4ccc(OC[C@@H]5CO[C@@](Cn6cncn6)(c6ccc(F)cc6F)C5)cc4)CC3)cc2)c1=O [POSACONAZOLE] | 0.125 µg/mL (≈ 0.178 µM)

The compounds below were run on Nakaseomyces glabratus (assay: Antifungal activity against Candida glabrata isolated from neutropenic subject 1102 with AML or MDS stool receiving antifungal drug after 26 days prophylaxis by broth microdilution method). Details: 624 h.
Type: functional

Row | SMILES | MIC
19 | CC[C@@H]([C@H](C)O)n1ncn(-c2ccc(N3CCN(c4ccc(OC[C@@H]5CO[C@@](Cn6cncn6)(c6ccc(F)cc6F)C5)cc4)CC3)cc2)c1=O [POSACONAZOLE] | > 8 µg/mL

These compounds were tested on Nakaseomyces glabratus (assay: Antifungal activity against 85 days cultured Candida glabrata isolated from HSCT recipient with acute or chronic GVHD mouth receiving antifungal therapy for 143 days after 116 days of prophylaxis by broth microdilution method). Details: not given.
Type: functional

Row | SMILES | MIC
20 | CC[C@@H]([C@H](C)O)n1ncn(-c2ccc(N3CCN(c4ccc(OC[C@@H]5CO[C@@](Cn6cncn6)(c6ccc(F)cc6F)C5)cc4)CC3)cc2)c1=O [POSACONAZOLE] | 4 µg/mL (≈ 5.71 µM)
